In PMC9511049, “Further investigation of blockade effects and binding affinities of selected natural compounds to immune checkpoint PD-1/PD-L1” (Frontiers in Oncology, 2022):
pIC50, pKd: −log10 of the molar value. Several values for one entry are separate records, joined by “and”; a condition that tells them apart may be missing. Equal values may be shown once.

Key:
[1] = target: T1, PD-1/PD-L1 interaction (Homo sapiens, UniProt Q9NZQ7); assay: PD-1/PD-L1 blockade assay (pair ELISA); format: biochemical; settings: for blockade effect on the PD-1/PD-L1 interaction (in words): test samples at 10 and 100 μM
T1 construct: purchased ACRO Biosystems

[2] = target: T2, human PD-L1 protein (Homo sapiens, UniProt Q9NZQ7); assay: PD-L1 binding assay with SPR (Biacore T200); settings: for kon: association rate, read-out: PD-L1 Ka; for pKd: immobilized human PD-L1 (Fc Tag)
T2 construct: Fc; purchased ACRO Biosystems

[3] = target: T3, human PD-1 protein (Homo sapiens, UniProt Q15116); assay: PD-1 binding assay with SPR (Biacore T200); settings: for kon: association rate, read-out: PD-1 Ka; for pKd: immobilized human PD-1 (Fc Tag)
T3 construct: Fc; purchased ACRO Biosystems
Protocol: The PD-1/PD-L1 binding affinity of test natural compounds was measured on a SPR Biacore T200 instrument (GE Healthcare; Marlborough, MA, USA). Human PD-L1and PD-1 proteins (both with a Fc Tag) were purchased from ACRO Biosystems (Newark, DE, USA). Carboxymethylated CM 5 SPR chips were purchased from GE Healthcare (Marlborough, MA, USA). The SPR binding channels were set as: Cell-1, blank immobilization; Cell-2, human PD-L1 protein was immobilized by the injection of protein solution (40 μg/mL) in sodium acetate buffer (10 mM; pH 4.5); Cell-3, human PD-1 protein was immobilized by the injection of protein solution (40 μg/mL) in sodium acetate buffer (10 mM; pH 5.0). Approximately, 5500 and 4500 RU of human PD-1 and PD-L1 proteins, respectively, were immobilized on the flow cells with an amine coupling method.

[4] = tested on: PD-1/PD-L1; set-up: method as in PMID 30068796; settings: homogenous AlphaLISA assay; read-out: IC50 of PD-1/PD-L1 blockade; cited from earlier work

T2 sequence (Q9NZQ7 19-290): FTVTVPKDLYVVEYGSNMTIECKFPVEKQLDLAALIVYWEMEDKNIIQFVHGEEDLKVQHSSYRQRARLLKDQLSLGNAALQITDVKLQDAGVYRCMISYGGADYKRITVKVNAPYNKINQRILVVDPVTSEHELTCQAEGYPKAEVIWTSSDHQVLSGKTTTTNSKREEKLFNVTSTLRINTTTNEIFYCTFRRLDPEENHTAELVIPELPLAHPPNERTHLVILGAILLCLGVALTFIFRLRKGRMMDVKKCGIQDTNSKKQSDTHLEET
T3 sequence (Q15116 25-288): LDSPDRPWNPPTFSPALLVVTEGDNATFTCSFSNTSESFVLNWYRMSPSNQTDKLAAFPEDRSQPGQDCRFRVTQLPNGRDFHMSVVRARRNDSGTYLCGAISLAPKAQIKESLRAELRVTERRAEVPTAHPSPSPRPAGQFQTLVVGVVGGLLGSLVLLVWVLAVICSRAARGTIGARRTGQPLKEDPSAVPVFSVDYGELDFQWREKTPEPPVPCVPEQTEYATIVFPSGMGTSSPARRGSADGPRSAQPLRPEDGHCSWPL
T1 sequence (Q9NZQ7 19-238 limits assumed): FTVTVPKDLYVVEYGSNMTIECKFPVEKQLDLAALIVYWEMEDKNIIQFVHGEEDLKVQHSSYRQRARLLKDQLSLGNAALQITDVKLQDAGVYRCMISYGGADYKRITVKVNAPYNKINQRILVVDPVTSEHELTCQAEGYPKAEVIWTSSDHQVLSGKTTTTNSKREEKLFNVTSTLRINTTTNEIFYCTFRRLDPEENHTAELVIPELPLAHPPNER

Compound	kon [2] [M⁻¹ s⁻¹]	pKd [2]	kon [3] [M⁻¹ s⁻¹]	pKd [3]	blockade of the PD-1/PD-L1 interaction ([1]; compound at 100 μM) [%]	blockade of the PD-1/PD-L1 interaction ([1]; compound at 10 μM) [%]	further results
O=C(OC[C@H]1O[C@@H](OC(=O)c2cc(O)c(O)c(O)c2)[C@H](OC(=O)c2cc(O)c(O)c(O)c2)[C@@H](OC(=O)c2cc(O)c(O)c(O)c2)[C@@H]1OC(=O)c1cc(O)c(O)c(O)c1)c1cc(O)c(O)c(O)c1 [PGG, pentagalloyl glucose]	413	5.65	3940	4.57 and 4.56			blockade effect on the PD-1/PD-L1 interaction (in words) [1]: not detected
O=c1cc(-c2ccc(O)cc2)oc2cc(O[C@@H]3O[C@H](CO)[C@@H](O)[C@H](O)[C@H]3O)cc(O)c12 [cosmosiin]	785	5.48			55.8		selectivity of binding (PD-L1 versus PD-1) [2]: selective binding to the PD-L1 protein; koff (dissociation rate constant) to PD-L1 [2]: 0.00261 s⁻¹
CO[C@H]1/C=C/O[C@@]2(C)Oc3c(C)c(O)c4c(c3C2=O)C2=NC3(CCN(CC(C)C)CC3)NC2=C(NC(=O)/C(C)=C\C=C\[C@H](C)[C@H](O)[C@@H](C)[C@@H](O)[C@@H](C)[C@H](OC(C)=O)[C@@H]1C)C4=O [Rifabutin, rifabutin, reference compound]					58.6		pIC50 [4]: 4.60; binding affinity to PD-L1 protein (in words) [2]: not detectable; binding affinity to PD-1 protein (in words) [3]: not detectable
Oc1ccc(/C=C/c2cc(O)cc(O)c2)cc1 [resveratrol]		4.42					koff (dissociation rate constant) to PD-L1 [2]: 0.06435 s⁻¹
O=C1O[C@H]2[C@@H]3OC(=O)c4cc(O)c(O)c(O)c4-c4c(O)c(O)c5oc(=O)c6c(c(O)c(O)c7oc(=O)c4c5c76)-c4c(cc(O)c(O)c4O)C(=O)OC[C@H]3OC(O)[C@@H]2OC(=O)c2cc(O)c(O)c(O)c2-c2c1cc(O)c(O)c2O (mixture of isomers) [punicalagin]							activity in the PD-1/PD-L1 blockade assay (in words) ([1]; earlier observation of the authors, concentration not given): not active; binding capacity to PD-1/PD-L1 proteins (in words) ([2]; protein not specified further (PD-1/PD-L1 proteins), earlier observation of the authors): detectable binding capacity
O=c1oc2c(O)c(O)cc3c(=O)oc4c(O)c(O)cc1c4c23 [EA, ellagic acid]		4.58	410	5.74			blockade effect on the PD-1/PD-L1 interaction (in words) [1]: not detected
O=C(OC[C@H]1O[C@@H](OC(=O)c2cc(O)c(O)c(OC(=O)c3cc(O)c(O)c(O)c3)c2)[C@H](OC(=O)c2cc(O)c(O)c(OC(=O)c3cc(O)c(O)c(O)c3)c2)[C@@H](OC(=O)c2cc(O)c(O)c(OC(=O)c3cc(O)c(O)c(O)c3)c2)[C@@H]1OC(=O)c1cc(O)c(O)c(OC(=O)c2cc(O)c(O)c(O)c2)c1)c1cc(O)c(O)c(OC(=O)c2cc(O)c(O)c(O)c2)c1 [TA, tannic acid]		5.92		5.84	36.9	11.0	
Cc1c(COc2cc(OCc3cccc(C#N)c3)c(CN3C[C@H](O)C[C@@H]3C(=O)O)cc2Cl)cccc1-c1ccc2c(c1)OCCO2 [BMS1166, reference compound]						99.3	
O=c1oc2cc(O)ccc2c2ccc(O)cc12 [urolithin A]					39.7		binding affinity to PD-L1 protein (in words) [2]: not detectable; binding affinity to PD-1 protein (in words) [3]: not detectable
O=c1c(O)c(-c2ccc(O)cc2)oc2cc(O)cc(O)c12 [kaempferol]	5460	4.48	504	6.52	63.4	4.1	binding affinity to PD-1 protein relative to PD-L1 protein ([3]; PD-1 stronger than PD-L1): 100 fold
